Literature values, collected in patent US12409155B1, “Ready to use LET formulations” (QuVa Pharma, Inc., priority 2021, dated 2025).

Conditions: Handbook

Question: For `O=C(O)CC(O)(CC(=O)O)C(=O)O` [citric acid], which pKa2 is on record?
Answer: 4.76
